# Biological target: T1, human MDM2 protein (amino acids 2-188) (Homo sapiens, UniProt Q00987)
# T1 construct: human MDM2 protein (amino acids 2-188); made in house
# Assay: p53-MDM2 TR-FRET assay, modified (p53-MDM2 Assay 2)
# Type: binding
# Details: 0.1 nM MDM2, 0.1 nM Europium labeled streptavidin; read-out: IC50 (nM) of p53-Hdm2 inhibition (TR-FRET) Assay 2
# Protocol: Time Resolved Fluorescence Energy Transfer (TR-FRET) Assay
# The inhibition of p53-MDM2 and p53-MDM4 interactions is measured by time resolved fluorescence energy transfer (TR-FRET). Fluorescence energy transfer (or Foerster resonance energy transfer) describes an energy transfer between donor and acceptor fluorescent molecules. For this assay, human MDM2 protein (amino acids 2-188) and human MDM4 protein (amino acids 2-185), tagged with a C-terminal biotin moiety, are used in combination with a Europium labeled streptavidin (Perkin Elmer, Inc., Waltham, Mass., USA) serving as the donor fluorophore. The p53 derived, Cy5 labeled peptide Cy5-TFSDLWKLL (p53 aa18-26) is the energy acceptor. Upon excitation of the donor molecule at 340 nm, binding interaction between MDM2 or MDM4 and the p53 peptide induces energy transfer and enhanced response at the acceptor emission wavelength at 665 nm. Disruption of the formation of the p53-MDM2 or p53-MDM4 complex due to an inhibitor molecule binding to the p53 binding site of MDM2 or MDM4 results in increased donor emission at 620 nm. The ratiometric FRET assay readout is calculated from the raw data of the two distinct fluorescence signals measured in time resolved mode (fluorescence 665 nm/fluorescence 620 nm×1000).
# After addition of 1.25 nM MDM2-biotinylated or 2.5 nM MDM4-biotinylated (internal preparations), and 0.625 nM Europium labeled streptavidin (Perkin Elmer), the solution is pre-incubated for 15 minutes at room temperature, then 10 nM Cy5-p53 peptide (internal preparation) is added before an incubation at room temperature for 15 minutes prior to reading the plate. For measurement of samples, a Victor II microplate reader (Perkin Elmer) is used with the following settings: Excitation 340 nm, Emission Donor 620 nm and Emission Acceptor 665 nm. IC50 values are calculated by curve fitting using XLfit. If not specified, reagents are purchased from Sigma-Aldrich Chemie GmBH, Buchs, Switzerland.
# This assay was used to evaluate compounds displaying inhibition of p53-MDM2 interaction and p53-MDM4 interaction at IC50s of 0.005 to 50 μM (p53-MDM2 Assay 1 and p53-MDM4 Assay 1, respectively). For selected compounds displaying IC50s between […] on MDM2, a slightly modified assay is used with the following adaptations: 0.1 nM MDM2, 0.1 nM Europium labeled streptavidin and Tecan genios Pro is used as a microplate reader for the fluorescence measurements (p53-MDM2 Assay 2).
# T1 sequence (Q00987 2-188): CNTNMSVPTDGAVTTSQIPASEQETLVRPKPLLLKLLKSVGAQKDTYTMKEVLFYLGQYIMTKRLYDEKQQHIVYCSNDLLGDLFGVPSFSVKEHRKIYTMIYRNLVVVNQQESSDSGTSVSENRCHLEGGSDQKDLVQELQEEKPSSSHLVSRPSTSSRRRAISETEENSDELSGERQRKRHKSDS
row,Compound,IC50
1,"COc1cc2c(cc1OC(C)C)[C@H](c1ccc(Cl)cc1)N(c1ccc(C(C)(O)[C@H]3CCCN(C=O)C3)cc1)C(=O)C2 (stereo partly drawn) [Example 182, (S)-3-(1-{4-[(S)-1-(4-Chloro-phenyl)-7-isopropoxy-6-methoxy-3-oxo-3,4-dihydro-1H-isoquinolin-2-yl]-phenyl}-1-hydroxy-ethyl)-piperidine-1-carbaldehyde]",0.329 nM
2,"[2H]C([2H])([2H])Oc1cc2c(cc1OC(C)C)[C@H](c1ccc(Cl)cc1)N(c1ccc(C(C)(O)C3CCS(=O)(=O)CC3)cc1)C(=O)C2 (mixture of isomers) [Example 150, (S)-1-(4-Chloro-phenyl)-2-{4-[1-(1,1-dioxo-hexahydro-1-thiopyran-4-yl)-1-hydroxy-ethyl]-phenyl}-7-isopropoxy-6-d^3-methoxy-1,4-dihydro-2H-isoquinolin-3-one]",4.43 nM
3,"COc1cc2c(cc1OC(C)C)[C@H](c1ccc(Cl)cc1)N(c1ccc([C@](C)(O)C3CCN(CCO)CC3)cc1)C(=O)C2 (single isomer, unassigned) [Example 132]",25.3 nM
4,"COc1cc2c(cc1OC(C)C)[C@H](c1ccc(Cl)cc1)N(c1ccc([C@@](C)(O)C3CC(C)(C)OC(C)(C)C3)cc1)C(=O)C2 (single isomer, unassigned) [Example 163]",1.26 nM
5,"COc1cc2c(cc1OC(C)C)[C@H](c1ccc(Cl)cc1)N(c1ccc(C(C)(O)C3CC4CCCC(C3)N4C(=O)CO)cc1)C(=O)C2 (stereo partly drawn) [Example 123, (S)-1-(4-Chloro-phenyl)-2-(4-{1-hydroxy-1-[9-(2-hydroxy-acetyl)-9-aza-bicyclo[3.3.1]non-3-yl]-ethyl}-phenyl)-7-isopropoxy-6-methoxy-1,4-dihydro-2H-isoquinolin-3-one]",4.2 nM
6,"CC(C)Oc1cc2c(cc1OC(F)F)CC(=O)N(c1ccc(C(C)(O)C3CCOCC3)cc1)C2c1ccc(Cl)cc1 (stereo not drawn) [Example 165, 1-(4-Chloro-phenyl)-6-difluoromethoxy-2-{4-[1-hydroxy-1-(tetrahydro-pyran-4-yl)-ethyl]-phenyl}-7-isopropoxy-1,4-dihydro-2H-isoquinolin-3-one]",12 nM
7,"COc1cc2c(cc1OC(C)C)[C@H](c1ccc(Cl)cc1)N(c1ccc([C@](C)(O)C3CC4CCC(C3)O4)cc1)C(=O)C2 (single isomer, unassigned) [Example 160]",41.9 nM
8,"COc1cc2c(cc1OC(C)C)[C@H](c1ccc(Cl)cc1)N(c1ccc([C@@](C)(O)C3CCN(C4COC4)CC3)cc1)C(=O)C2 (single isomer, unassigned) [Example 127]",0.935 nM
9,"COc1cc2c(cc1OC(C)C)[C@H](c1ccc(Cl)cc1)N(c1ccc(C(C)(O)C3CN(C4COC4)C3)cc1)C(=O)C2 (stereo partly drawn) [Example 103, (S)-1-(4-Chloro-phenyl)-2-{4-[1-hydroxy-1-(1-oxetan-3-yl-azetidin-3-yl)-ethyl]-phenyl}-7-isopropoxy-6-methoxy-1,4-dihydro-2H-isoquinolin-3-one]",9.18 nM
10,"COc1cc2c(cc1OC(C)C)[C@H](c1ccc(Cl)cc1)N(c1ccc([C@](C)(O)C3CC4CCCC(C3)S4(=O)=O)cc1)C(=O)C2 (stereo partly drawn) [Example 176, (S)-1-(4-Chloro-phenyl)-2-{4-[(R)-1-(9,9-dioxo-9-thia-bicyclo[3.3.1]non-3-yl)-1-hydroxy-ethyl]-phenyl}-7-isopropoxy-6-methoxy-1,4-dihydro-2H-isoquinolin-3-one]",98 nM
11,"COc1cc2c(cc1OC(C)C)[C@H](c1ccc(Cl)cc1)N(c1ccc([C@@](C)(O)C3CC4CCCC(C3)S4(=O)=O)cc1)C(=O)C2 (stereo partly drawn) [Example 177, (S)-1-(4-Chloro-phenyl)-2-{4-[(S)-1-(9,9-dioxo-9-thia-bicyclo[3.3.1]non-3-yl)-1-hydroxy-ethyl]-phenyl}-7-isopropoxy-6-methoxy-1,4-dihydro-2H-isoquinolin-3-one]",1.15 nM
12,"COc1cc2c(cc1OC(C)C)[C@H](c1ccc(Cl)cc1)N(c1ccc(C(C)(O)C34CCC(CC3)OC4)cc1)C(=O)C2 (stereo partly drawn) [Example 178, (S)-1-(4-Chloro-phenyl)-2-{4-[1-hydroxy-1-(2-oxa-bicyclo[2.2.2]oct-4-yl)-ethyl]-phenyl}-7-isopropoxy-6-methoxy-1,4-dihydro-2H-isoquinolin-3-one]",1.59 nM
13,"COc1cc2c(cc1OC(C)C)[C@H](c1ccc(Cl)cc1)N(c1ccc(C(C)(O)[C@H]3CCCN(C)C3)cc1)C(=O)C2 (stereo partly drawn) [Example 181, (S)-1-(4-Chloro-phenyl)-2-{4-[1-hydroxy-1-((S)-1-methyl-piperidin-3-yl)-ethyl]-phenyl}-7-isopropoxy-6-methoxy-1,4-dihydro-2H-isoquinolin-3-one]",5.13 nM
14,"COc1cc2c(cc1OC(C)C)[C@H](c1ccc(Cl)cc1)N(c1ccc([C@](C)(O)C3CCN(C4COC4)CC3)cc1)C(=O)C2 (single isomer, unassigned) [Example 126]",58.6 nM
15,"COc1cc2c(cc1OC(C)C)[C@H](c1ccc(Cl)cc1)N(c1ccc(C(C)(O)C3CC4CCCC(C3)N4C3COC3)cc1)C(=O)C2 (stereo partly drawn) [Example 120, (S)-1-(4-Chloro-phenyl)-2-{4-[1-hydroxy-1-(9-oxetan-3-yl-9-aza-bicyclo[3.3.1]non-3-yl)-ethyl]-phenyl}-7-isopropoxy-6-methoxy-1,4-dihydro-2H-isoquinolin-3-one]",4.67 nM
16,"COc1cc2c(cc1OC(C)C)[C@H](c1ccc(Cl)cc1)N(c1ccc(C(C)(O)[C@H]3CCCN(C(=O)OC(C)(C)C)C3)cc1)C(=O)C2 (stereo partly drawn) [Example 179, (S)-3-(1-{4-[(S)-1-(4-Chloro-phenyl)-7-isopropoxy-6-methoxy-3-oxo-3,4-dihydro-1H-isoquinolin-2-yl]-phenyl}-1-hydroxy-ethyl)-piperidine-1-carboxylic acid tert-butyl ester]",1.28 nM
17,"[2H]C([2H])([2H])Oc1cc2c(cc1OC(C)C)[C@H](c1ccc(Cl)cc1)N(c1ccc([C@@](C)(O)C3CCS(=O)(=O)CC3)cc1)C(=O)C2 (single isomer, unassigned) [Example 153]",3.16 nM
18,"COc1cc2c(cc1OC(C)C)[C@H](c1ccc(Cl)cc1)N(c1ccc([C@](C)(O)C3CC(C)(C)OC(C)(C)C3)cc1)C(=O)C2 (single isomer, unassigned) [Example 164]",509 nM
19,"[2H]C([2H])([2H])Oc1cc2c(cc1OC(C)C)[C@H](c1ccc(Cl)cc1)N(c1ccc(C(C)(O)C3CCN(C=O)CC3)cc1)C(=O)C2 (stereo partly drawn) [Example 151, 4-(1-{4-[(S)-1-(4-Chloro-phenyl)-7-isopropoxy-6-d^3-methoxy-3-oxo-3,4-dihydro-1H-isoquinolin-2-yl]-phenyl}-1-hydroxy-ethyl)-piperidine-1-carbaldehyde]",2.09 nM
20,"COc1cc2c(cc1OC(C)C)[C@H](c1ccc(Cl)cc1)N(c1ccc([C@@](C)(O)C3CCN(CCO)CC3)cc1)C(=O)C2 (single isomer, unassigned) [Example 131]",1.42 nM
21,"[2H]C([2H])([2H])Oc1cc2c(cc1OC(C)C)[C@H](c1ccc(Cl)cc1)N(c1ccc([C@@](C)(O)C3CCN(C=O)CC3)cc1)C(=O)C2 (single isomer, unassigned) [Example 155]",1.23 nM
22,"COc1cc2c(cc1OC(C)C)[C@H](c1ccc(Cl)cc1)N(c1ccc([C@@](C)(O)C3CCN(C=O)CC3)cc1)C(=O)C2 (single isomer, unassigned) [Example 125]",0.746 nM
23,"COc1cc2c(cc1OC(C)C)[C@H](c1ccc(Cl)cc1)N(c1ccc([C@@](C)(O)C3CCN(C(=O)COC(C)=O)CC3)cc1)C(=O)C2 (single isomer, unassigned) [Example 128]",1.34 nM
24,"COc1cc2c(cc1OC(C)C)[C@H](c1ccc(Cl)cc1)N(c1ccc([C@@](C)(O)C34CCC(CC3)C4)cc1)C(=O)C2 (single isomer, unassigned) [Example 139]",2.72 nM
25,"COc1cc2c(cc1OC(C)C)[C@H](c1ccc(Cl)cc1)N(c1ccc([C@](C)(O)C34CCC(CC3)C4)cc1)C(=O)C2 (single isomer, unassigned) [Example 140]",305 nM
26,"CCN1C2CCCC1CC(C(C)(O)c1ccc(N3C(=O)Cc4cc(OC)c(OC(C)C)cc4[C@@H]3c3ccc(Cl)cc3)cc1)C2 (stereo partly drawn) [Example 122, (S)-1-(4-Chloro-phenyl)-2-{4-[1-(9-ethyl-9-aza-bicyclo[3.3.1]non-3-yl)-1-hydroxy-ethyl]-phenyl}-7-isopropoxy-6-methoxy-1,4-dihydro-2H-isoquinolin-3-one]",2.31 nM
27,"COc1cc2c(cc1OC(C)C)[C@H](c1ccc(Cl)cc1)N(c1ccc([C@@](C)(O)C3CCN(C(=O)CO)CC3)cc1)C(=O)C2 (single isomer, unassigned) [Example 133]",1.62 nM
